Assay results: the supplement of paper PMC10307832

How the values were obtained:
Test in all cases: relative viability (nuclei count vs DMSO), 5 days (fraction); higher = more cells survive
EMC-BAC-2 = tested on: EMC-BAC-2
How it was run: (§1)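 Relative viability is defined as nuclei in treated wells over nuclei in vehicle wells. Duplicate plates were run and medians reported. Lung cancer cell lines in 1536-well plates were dosed by pin tool one day after seeding, with one drug or with a fixed anchor-drug dose plus five library-drug doses (not always all listed) in √10 steps, and nuclei were counted after 5 days.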

EPLC-272H = tested on: EPLC-272H
How it was run: as §1

HCC-44 = tested on: HCC-44
How it was run: as §1

HOP-62 = tested on: HOP-62
How it was run: as §1

LCLC-103H = tested on: LCLC-103H
How it was run: as §1

LOU-NH91 = tested on: LOU-NH91
How it was run: as §1

NCI-H1437 = tested on: NCI-H1437
How it was run: as §1

NCI-H1793 = tested on: NCI-H1793
How it was run: as §1

NCI-H2009 = tested on: NCI-H2009
How it was run: as §1

NCI-H2023 = tested on: NCI-H2023
How it was run: as §1

NCI-H2126 = tested on: NCI-H2126
How it was run: as §1

NCI-H2347 = tested on: NCI-H2347
How it was run: as §1

NCI-H23 = tested on: NCI-H23
How it was run: as §1

NCI-H2405 = tested on: NCI-H2405
How it was run: as §1

NCI-H441 = tested on: NCI-H441
How it was run: as §1

NCI-H460 = tested on: NCI-H460
How it was run: as §1

NCI-H520 = tested on: NCI-H520
How it was run: as §1

NCI-H647 = tested on: NCI-H647
How it was run: as §1

NCI-H650 = tested on: NCI-H650
How it was run: as §1

NCI-H727 = tested on: NCI-H727
How it was run: as §1

SW 1573 = tested on: SW 1573
How it was run: as §1

Cc1cnc(-c2cnc(NCCNc3ccc(C#N)cn3)nc2-c2ccc(Cl)cc2Cl)[nH]1 + C[C@]1(O)C[C@@H](c2nc(-c3ccc4ccc(-c5ccccc5)nc4c3)c3c(N)nccn32)C1 [Linsitinib] (partner 1 µM)
relative viability (EMC-BAC-2; first compound 0.08 µM): 0.852 | relative viability (EMC-BAC-2; first compound 0.253 µM): 0.792 | relative viability (EMC-BAC-2; first compound 0.8 µM): 0.814 | relative viability (EMC-BAC-2; first compound 2.53 µM): 0.83 | relative viability (EPLC-272H; first compound 0.08 µM): 1.08 | relative viability (EPLC-272H; first compound 0.253 µM): 1.18 | relative viability (EPLC-272H; first compound 0.8 µM): 1.27 | relative viability (EPLC-272H; first compound 2.53 µM): 1.13 | relative viability (HCC-44; first compound 0.08 µM): 0.685 | relative viability (HCC-44; first compound 0.253 µM): 0.553 | relative viability (HCC-44; first compound 0.8 µM): 0.681 | relative viability (HCC-44; first compound 2.53 µM): 0.787 | relative viability (HOP-62; first compound 0.08 µM): 1.09 | relative viability (HOP-62; first compound 0.253 µM): 0.972 | relative viability (HOP-62; first compound 0.8 µM): 0.775 | relative viability (HOP-62; first compound 2.53 µM): 0.794 | relative viability (LCLC-103H; first compound 0.08 µM): 0.968 | relative viability (LCLC-103H; first compound 0.253 µM): 1.11 | relative viability (LCLC-103H; first compound 0.8 µM): 1.21 | relative viability (LCLC-103H; first compound 2.53 µM): 1.09 | relative viability (LOU-NH91; first compound 0.08 µM): 1.07 | relative viability (LOU-NH91; first compound 0.253 µM): 0.951 | relative viability (LOU-NH91; first compound 0.8 µM): 0.969 | relative viability (LOU-NH91; first compound 2.53 µM): 0.89 | relative viability (NCI-H1437; first compound 0.08 µM): 1.01 | relative viability (NCI-H1437; first compound 0.253 µM): 0.972 | relative viability (NCI-H1437; first compound 0.8 µM): 1.03 | relative viability (NCI-H1437; first compound 2.53 µM): 1.04 | relative viability (NCI-H1793; first compound 0.08 µM): 1.16 | relative viability (NCI-H1793; first compound 0.253 µM): 0.822 | relative viability (NCI-H1793; first compound 0.8 µM): 0.809 | relative viability (NCI-H1793; first compound 2.53 µM): 0.916 | relative viability (NCI-H2009; first compound 0.08 µM): 1.21 | relative viability (NCI-H2009; first compound 0.253 µM): 1.14 | relative viability (NCI-H2009; first compound 0.8 µM): 1.23 | relative viability (NCI-H2009; first compound 2.53 µM): 1.1 | relative viability (NCI-H2023; first compound 0.08 µM): 0.779 | relative viability (NCI-H2023; first compound 0.253 µM): 0.649 | relative viability (NCI-H2023; first compound 0.8 µM): 0.794 | relative viability (NCI-H2023; first compound 2.53 µM): 1.12 | relative viability (NCI-H2126; first compound 0.08 µM): 0.739 | relative viability (NCI-H2126; first compound 0.253 µM): 0.726 | relative viability (NCI-H2126; first compound 0.8 µM): 0.753 | relative viability (NCI-H2126; first compound 2.53 µM): 0.704 | relative viability (NCI-H2347; first compound 0.08 µM): 1.08 | relative viability (NCI-H2347; first compound 0.253 µM): 0.72 | relative viability (NCI-H2347; first compound 0.8 µM): 1 | relative viability (NCI-H2347; first compound 2.53 µM): 1.02 | relative viability (NCI-H23; first compound 0.08 µM): 0.674 | relative viability (NCI-H23; first compound 0.253 µM): 0.555 | relative viability (NCI-H23; first compound 0.8 µM): 0.536 | relative viability (NCI-H23; first compound 2.53 µM): 0.691 | relative viability (NCI-H2405; first compound 0.08 µM): 1.25 | relative viability (NCI-H2405; first compound 0.253 µM): 0.856 | relative viability (NCI-H2405; first compound 0.8 µM): 0.999 | relative viability (NCI-H2405; first compound 2.53 µM): 0.709 | relative viability (NCI-H441; first compound 0.08 µM): 0.662 | relative viability (NCI-H441; first compound 0.253 µM): 0.445 | relative viability (NCI-H441; first compound 0.8 µM): 0.606 | relative viability (NCI-H441; first compound 2.53 µM): 0.519 | relative viability (NCI-H460; first compound 0.08 µM): 0.918 | relative viability (NCI-H460; first compound 0.253 µM): 0.623 | relative viability (NCI-H460; first compound 0.8 µM): 0.974 | relative viability (NCI-H460; first compound 2.53 µM): 0.782 | relative viability (NCI-H520; first compound 0.08 µM): 0.974 | relative viability (NCI-H520; first compound 0.253 µM): 0.985 | relative viability (NCI-H520; first compound 0.8 µM): 0.965 | relative viability (NCI-H520; first compound 2.53 µM): 1.09 | relative viability (NCI-H647; first compound 0.08 µM): 1.17 | relative viability (NCI-H647; first compound 0.253 µM): 0.993 | relative viability (NCI-H647; first compound 0.8 µM): 1.17 | relative viability (NCI-H647; first compound 2.53 µM): 1.03 | relative viability (NCI-H650; first compound 0.08 µM): 1.02 | relative viability (NCI-H650; first compound 0.253 µM): 0.769 | relative viability (NCI-H650; first compound 0.8 µM): 0.93 | relative viability (NCI-H650; first compound 2.53 µM): 0.712 | relative viability (NCI-H727; first compound 0.08 µM): 0.29 | relative viability (NCI-H727; first compound 0.253 µM): 0.334 | relative viability (NCI-H727; first compound 0.8 µM): 0.295 | relative viability (SW 1573; first compound 0.08 µM): 0.945 | relative viability (SW 1573; first compound 0.253 µM): 0.744 | relative viability (SW 1573; first compound 0.8 µM): 0.845 | relative viability (SW 1573; first compound 2.53 µM): 0.695
